Data set [1] concerns Hsp90. The data set can be described thus: Western blot of Hsp90 in PN cells. The class given is cell-based, mouse. The note with it: VX-809 10 μM 16 h. Here is the method: (§1) FIG. 8A, FIG. 8B, FIG. 8C, FIG. 8D, FIG. 8E, FIG. 8F, FIG. 8G, and FIG. 8H show chaperone expression is altered in PH and PN cells by VX-809. (FIG. 8A) Western blot showing expression of HSP27, 70 and HSP 90 in VX-809 treated or control PN cells. […] (FIG. 8E). Western blot of HSP27, 70 and 90 in PH vs. PN cells. […] Whereas, Hsp70 is higher in PH vs. PN cells. Data were analyzed by non-parametric t test. Experiment was repeated 4-5 times. Cells were grown in 10-cm culture dishes at permissive conditions (33° C.) with γ-interferon in culture media. Cells were then transferred to non-permissive conditions at 37° C., γ-interferon free culture media and evaluated at full confluence. At day four, cells were treated with VX-809 (10 μM) for 16 h and harvested on fifth day for assay. *P<0.05., **P<0.01, ***P<0.001, ****P<0.0001; To facilitate their growth in the kidney, cysts have developed an altered network of proteins that most likely serves to protect them from stress (34). Next, it was determined whether VX-809 would alter the levels of Hsps in pkd−/− mice and in PN cells. […] Hsp 27, 70 and 90 are all elevated in cystic kidneys compared to normal controls. […] There is no change in Hsp 40. […] Both sets of data are consistent with an alteration in the heat shock response to cyst growth.
(Immunoblotting shows a protein as a band on a membrane.)

The target in data set [2] is CFTR (Mus musculus, UniProt P26361). The data set can be described thus: Biotinylation of CFTR in PN cells. In kind it is cell-based. Also on record: endogenous in cells; host or cells: PN (Pkd1-null mouse proximal tubule) cells. The note with it: VX-809 treatment vs control PN cells. The protocol:
FIG. 19A, FIG. 19B, FIG. 19C, and FIG. 19D show CFTR expression in PN cells treated with VX-809 (10 μM) for 16 h.
The expression of CFTR was evaluated in PN cells treated with VX-809 and control PN cells. PN cells were treated with 10 μM VX-809 for 16 h or a control.

Data set [3] deals with GRP78. The data set can be described thus: Western blot of ER stress marker GRP78 in kidney tissue. The class given is in vivo, mouse. The note with it: cyst induced pkd−/− mice, VX-809 30 mg/kg BW. The protocol:
FIG. 11A. FIG. 11B, FIG. 11C, FIG. 11D, and FIG. 11E show expression of ER stress markers GRP78, ErO1, and GADD in Pkd1^−/− mice treated with VX-809. (FIG. 11A & FIG. 11D) Representative Western blot images of GRP78, ErO1, and GADD in lysates of kidney tissue from no cyst induced (ND), cyst induced with doxycycline (D) or cyst induced pkd−/− mice treated with VX-809 (D+VX-809) 30 mg/kg BW. (FIG. 11B, FIG. 11C and FIG. 11E) Columns represent averages±standard errors of GRP78, ErO1, and GADD153 expression. Data were analyzed by non-parametric t-test. n=4 for each treated and control groups. Black lines between lanes represent representative experiments from the same gel but loaded in different lanes. **P<0.01, ***P<0.001;
Given that VX-809 alters an ensemble of Hsps, it was evaluated whether VX-809 alters proteins associated with ER stress. To address this question, the levels of three ER stress-associated proteins were measured, 78-kDa glucose-regulated protein (GRP78), ER oxidoreductin 1 (Ero1) and DNA damage-inducible protein 3 (GADD153), also known as C/EBP homologous protein (CHOP) (37). The results are depicted in FIG. 11 show no changes in GRP78 or Ero1 in response to VX-809.

In data set [4] the test system is Hsp27. The data set can be described thus: Western blot of Hsp27 in PN cells. The following applies: VX-809 10 μM 16 h. The class given is cell-based, mouse. The protocol:
as §1

The test system of data set [5] is model ADPKD cell line (PN=pkd−/− knockout). The data set can be described thus: In vitro cystogenesis (3D Matrigel culture), cyst size. In kind it is cell-based, mouse. Set-up: cyst size, drug treatment regime incl. established cysts: dose or concentration left out as unconfirmed.
Data set [6] deals with Hsp70. Briefly: Western blot of Hsp70 in PN cells. The class given is cell-based, mouse. The following applies: VX-809 10 μM 16 h. Here is the method:
as §1

Data set [7] has as its system Pkd1^fl/fl; Pax8^rtTA; TetO-cre mice. The data set can be described thus: Cyst growth and renal function in Pkd1 knockout mice treated with VX-809. The class given is in vivo, mouse. Here is the method: (FIG. 1A) Representative images of postnatal day (PND) 21 kidney sections from DMSO- and VX-809-treated mice. Significant reductions occurred in (FIG. 1B) cyst index, (FIG. 1C) kidney weight, and (FIG. 1D) kidney-to-body weight ratio. […] Methods: The total kidney area and total cystic area were measured with ImageJ (provided by NIH). Cystic index=100× (total cystic area/total kidney area) and is expressed as a percentage. Columns represent means±standard error (SEM) for DMSO (vehicle)-treated (n=4-5) and VX-809 mice. *P<0.05; **P<0.01 (for all graphs). Statistical analysis was performed using an unpaired two-tailed Student's t-test;
When treated with doxycycline, these mice express Cre, causing knockout of PC1 (18). […] The dosage of VX-809 injected was lower than the human pediatric dose, which is 500 mg of Lumacaftor per day; the adult dose is 800 mg/day.
Mouse strain and treatment. Pkd1^fl/fl; Pax8^rtTA; TetO-cre mice on a C57BL/6 background (61) were provided by the Baltimore PKD Center. Mice of both sexes were used in this study. Mice were injected IP with doxycycline (Sigma, # D9891) ([…]) on postnatal day 11 (PND11), PND12, and PND13 to produce very rapid and aggressive cyst growth (18,19). On PND21, the mice were euthanized.

Data set [8] relates to PC2. Briefly: Western blot of PC2 expression. The class given is cell-based, mouse. The following applies: PN cells, endogenous PC2. Here is the method: FIG. 6A and FIG. 6B show PC2 expression is unchanged by VX-809. (FIG. 6A) Western blot showing expression of PC2 in treated or control cells. (FIG. 6B) Columns represent the means±SEM of the PC2 expression. The data were analyzed by non-parametric t-test. The experiment was repeated six (control) or seven times;
PC2 is a 968-amino acid protein with an approximate molecular weight of 100 kDa in its monomeric form. To determine whether VX-809 affects PC2 protein expression, western blot experiments were conducted on PN cells to determine the resting levels of endogenous PC2.

The mark [9] stands for this setting: VX-809 30 mg/kg IP daily PND10 to PND20 vs DMSO-treated mice.
The mark [10] stands for this setting: VX-809 30 mg/kg IP daily PND10 to PND20 vs control mice.

Sequence of CFTR (P26361 whole entry): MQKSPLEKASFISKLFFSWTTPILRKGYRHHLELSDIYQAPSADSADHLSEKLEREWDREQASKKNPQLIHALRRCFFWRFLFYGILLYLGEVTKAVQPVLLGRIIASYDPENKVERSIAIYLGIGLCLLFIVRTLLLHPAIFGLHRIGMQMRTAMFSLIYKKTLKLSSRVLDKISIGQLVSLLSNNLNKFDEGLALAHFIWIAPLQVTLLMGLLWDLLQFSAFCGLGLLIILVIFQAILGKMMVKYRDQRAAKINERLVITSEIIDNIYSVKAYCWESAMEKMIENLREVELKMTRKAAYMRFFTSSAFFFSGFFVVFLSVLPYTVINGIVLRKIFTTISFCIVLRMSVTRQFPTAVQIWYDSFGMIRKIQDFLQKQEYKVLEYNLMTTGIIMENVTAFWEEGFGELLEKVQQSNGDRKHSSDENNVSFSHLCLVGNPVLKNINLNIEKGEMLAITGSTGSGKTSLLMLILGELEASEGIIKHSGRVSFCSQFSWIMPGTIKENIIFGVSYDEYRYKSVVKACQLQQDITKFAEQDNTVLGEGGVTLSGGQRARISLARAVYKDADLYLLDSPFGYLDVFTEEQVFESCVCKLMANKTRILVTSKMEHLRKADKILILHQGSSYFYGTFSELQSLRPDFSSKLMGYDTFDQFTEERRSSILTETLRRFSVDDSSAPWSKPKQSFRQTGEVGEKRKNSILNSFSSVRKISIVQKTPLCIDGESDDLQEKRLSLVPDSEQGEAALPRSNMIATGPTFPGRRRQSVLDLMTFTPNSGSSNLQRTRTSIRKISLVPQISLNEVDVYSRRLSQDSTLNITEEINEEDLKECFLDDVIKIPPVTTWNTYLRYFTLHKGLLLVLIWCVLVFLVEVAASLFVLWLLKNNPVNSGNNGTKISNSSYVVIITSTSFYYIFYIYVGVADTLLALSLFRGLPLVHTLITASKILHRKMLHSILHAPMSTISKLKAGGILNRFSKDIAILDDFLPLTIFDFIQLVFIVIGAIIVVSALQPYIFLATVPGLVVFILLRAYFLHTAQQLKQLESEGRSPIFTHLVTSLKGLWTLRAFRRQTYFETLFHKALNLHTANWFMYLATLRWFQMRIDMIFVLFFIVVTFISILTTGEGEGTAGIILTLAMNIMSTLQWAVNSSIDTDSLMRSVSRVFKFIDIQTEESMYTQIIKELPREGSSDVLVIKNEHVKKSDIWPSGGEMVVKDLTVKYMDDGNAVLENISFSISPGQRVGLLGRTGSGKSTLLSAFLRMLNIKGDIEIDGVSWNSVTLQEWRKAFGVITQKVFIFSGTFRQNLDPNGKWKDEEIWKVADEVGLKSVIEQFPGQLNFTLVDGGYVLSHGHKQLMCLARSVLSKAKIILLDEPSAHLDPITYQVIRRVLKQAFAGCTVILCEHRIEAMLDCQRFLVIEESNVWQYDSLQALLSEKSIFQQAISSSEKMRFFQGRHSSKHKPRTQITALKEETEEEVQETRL

On to lumacaftor [VX-809], for which the “Hsp90 expression in PN cells” value in data set [1] is listed as “reduced expression”. In addition, the “biotinylation of CFTR” value in data set [2] is listed as “significantly increased”. For the same substance, the GRP78 expression entry in data set [3] was “no changes”. Moreover, the “Hsp27 expression in PN cells” value in data set [4] is “reduced expression”. In addition, the cyst growth entry in data set [5] (10 μM, plus or minus forskolin, treated on Days 0, 2, 4, 6, 8, 10, 12, 14, pictures Day 16) is “reduce cyst growth equally well in the presence and absence of forskolin”. Also, the “cyst size, drug treatment regime incl. established cysts” value in data set [5] (every other day, or from Days 9-16 on established cysts, in the presence of forskolin) is listed as “dramatically reducing cyst size”. Moreover, the “Hsp70 expression in PN cells” value in data set [6] is listed as “reduced expression”. The overall body weight entry in data set [7] (VX-809 30 mg/kg IP daily PND10 to PND20, treated vs untreated groups) is “no difference in overall body weight”. In data set [7] (setting [9]), the “blood urea nitrogen (BUN)” value is “lowered blood urea nitrogen (BUN)” and the creatinine entry is reported as “lowered”. Besides, in data set [7] (VX-809 30 mg/kg IP daily PND10 to PND20 vs DMSO, doxycycline-induced cysts, PND21), the “less cyst growth (cyst index)” value is around 60.4%. In addition, in data set [7] (setting [10]), the Kidney weight result is listed as “lower than those of the control mice” and the kidney-to-body weight ratio result is given as “lower than those of the control mice”. Besides, the PC2 expression result in data set [8] is on record as “no effect on PC2 expression”.

The values are drawn from patent publication US20200289482A1, “CYSTIC FIBROSIS TRANSMEMBRANE CONDUCTANCE REGULATOR MODULATORS FOR TREATING AUTOSOMAL DOMINANT POLYCYSTIC KIDNEY DISEASE” (The Johns Hopkins University, priority 2017, published 2020).
